Activity calls are given as the source filed them.
Experiments:
Cytochrome P450 2C19 = Cytochrome P450 2C19 (Homo sapiens, UniProt P33261); assay: Cytochrome panel assay with activity outcomes. Panel member name: p450-cyp2c19 Compounds with AC50 equal or less than 10 uM are considered active; format: functional
Cytochrome P450 3A4 = Cytochrome P450 3A4 (Homo sapiens, UniProt P08684);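 note: CYP3A4 tested as one member of a cytochrome P450 panel screen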
Cytochrome P450 1A2 = target: T1, Cytochrome P450 1A2 (Homo sapiens, UniProt P05177);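 note: PubChem cytochrome P450 panel assay, CYP1A2 panel member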
T1 sequence (P05177 whole entry): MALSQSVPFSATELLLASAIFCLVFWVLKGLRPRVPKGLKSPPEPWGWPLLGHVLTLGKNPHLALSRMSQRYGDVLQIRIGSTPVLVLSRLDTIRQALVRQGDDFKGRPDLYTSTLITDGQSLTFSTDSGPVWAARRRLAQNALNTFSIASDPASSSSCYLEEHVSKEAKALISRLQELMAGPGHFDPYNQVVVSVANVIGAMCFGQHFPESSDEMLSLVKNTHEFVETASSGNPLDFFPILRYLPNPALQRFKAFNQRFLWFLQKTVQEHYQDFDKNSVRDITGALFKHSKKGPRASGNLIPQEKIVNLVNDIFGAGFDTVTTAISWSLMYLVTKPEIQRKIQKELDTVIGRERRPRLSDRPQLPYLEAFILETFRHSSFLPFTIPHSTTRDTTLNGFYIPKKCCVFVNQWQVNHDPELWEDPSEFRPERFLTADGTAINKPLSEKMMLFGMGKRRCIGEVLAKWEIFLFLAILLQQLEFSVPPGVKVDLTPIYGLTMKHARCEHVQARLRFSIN

cells [1] = format: functional, cell-based
cells [2] = format: functional, cell-based; remark: listed apart in the source
[3] = target: T2, Heat shock factor protein 1 (Mus musculus, UniProt P38532); assay: HSF1 potentiators in luciferase reporter cells, confirmation, cell-based, NIH3T3, luminescence, dose retest (AID 435004); format: functional;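 note: stress induced by proteasome inhibitor MG132 added 30 min after compound; luciferase reporter driven by HSF1 response element in NIH3T3 cells; actives raise luminescence as potentiators of the MG132 stress response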
T2 sequence (P38532 whole entry): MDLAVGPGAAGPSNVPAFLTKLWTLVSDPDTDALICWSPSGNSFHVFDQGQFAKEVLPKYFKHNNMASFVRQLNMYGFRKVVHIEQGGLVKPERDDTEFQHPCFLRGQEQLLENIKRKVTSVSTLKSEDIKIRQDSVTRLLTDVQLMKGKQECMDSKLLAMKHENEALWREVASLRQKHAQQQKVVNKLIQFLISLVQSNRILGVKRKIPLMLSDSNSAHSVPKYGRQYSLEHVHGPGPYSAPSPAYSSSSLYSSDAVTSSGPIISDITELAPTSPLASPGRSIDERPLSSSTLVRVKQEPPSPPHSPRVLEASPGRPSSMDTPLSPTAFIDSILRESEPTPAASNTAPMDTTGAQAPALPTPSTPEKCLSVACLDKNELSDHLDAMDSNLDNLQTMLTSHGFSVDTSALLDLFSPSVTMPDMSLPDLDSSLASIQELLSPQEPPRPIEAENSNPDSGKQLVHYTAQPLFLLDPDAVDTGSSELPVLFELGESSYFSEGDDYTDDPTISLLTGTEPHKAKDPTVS

[4] = target: FAD-linked sulfhydryl oxidase ALR (Homo sapiens, UniProt P55789); assay: inhibitors of human ALR sulfhydryl oxidase, dose response, biochemical, H2O2 detection, luminescence, cherry-pick (AID 493248)
[5] = target: Luciferin 4-monooxygenase (Photinus pyralis, UniProt P08659); assay: firefly luciferase enzyme inhibitors, dose response, biochemical, luminescence (AID 1891)
[6] = Luminescence Cell-Based Dose Confirmation HTS to Identify Inhibitors of Platelet Dense Granule Release. [Related pubchem assays: 1663 (Primary HTS), 1678 (Summary of Project)]; format: functional
[7] = Shn3 3'UTR reporter inhibitors, dose response, cell-based, Clone20 osteoblasts, firefly luciferase, cherry-picked (AID 624132); format: functional;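 note: firefly luciferase luminescence from reporter carrying the Shn3 3'UTR in osteoblasts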
[8] = target: T3, Corticotropin-releasing factor receptor 2/Corticotropin-releasing factor-binding protein (Homo sapiens, UniProt P24387+Q13324); assay: activators of CRF receptor 2 with binding protein – uHTS hits, confirmation (AID 602473); format: functional; settings: read-out: EC50_Mean
T3 sequence (Q13324 whole entry): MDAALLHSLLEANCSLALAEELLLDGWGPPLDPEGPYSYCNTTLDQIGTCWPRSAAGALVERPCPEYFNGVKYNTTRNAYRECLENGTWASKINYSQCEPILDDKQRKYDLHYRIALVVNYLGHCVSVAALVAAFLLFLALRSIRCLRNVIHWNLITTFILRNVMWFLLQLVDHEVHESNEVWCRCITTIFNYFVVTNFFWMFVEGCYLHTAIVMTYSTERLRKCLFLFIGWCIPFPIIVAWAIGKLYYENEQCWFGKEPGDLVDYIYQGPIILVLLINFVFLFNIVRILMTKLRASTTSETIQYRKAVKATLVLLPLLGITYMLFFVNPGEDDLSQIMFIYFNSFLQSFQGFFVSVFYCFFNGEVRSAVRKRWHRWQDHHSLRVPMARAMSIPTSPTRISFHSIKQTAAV
T3 sequence (P24387 whole entry): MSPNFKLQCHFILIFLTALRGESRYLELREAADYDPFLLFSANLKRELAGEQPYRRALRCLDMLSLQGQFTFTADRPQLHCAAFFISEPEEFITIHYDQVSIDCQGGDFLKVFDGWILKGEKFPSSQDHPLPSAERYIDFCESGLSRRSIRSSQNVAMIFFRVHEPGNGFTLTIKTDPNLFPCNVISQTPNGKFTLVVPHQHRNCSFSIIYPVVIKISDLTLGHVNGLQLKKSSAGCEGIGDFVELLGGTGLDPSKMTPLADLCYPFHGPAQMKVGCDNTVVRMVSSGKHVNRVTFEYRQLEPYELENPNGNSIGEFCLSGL

[9] = control 3'UTR Renilla luciferase suppression, dose response, counter-screen for Shn3 inhibitor project, cell-based, Clone20-Shn3RL, cherry-picked (AID 624133); format: functional
[10] = HepG2 cell cytotoxicity, dose response, cytotoxicity control for Shn3 inhibitor project, CellTiter-Glo, cherry-picked (AID 624134); format: functional, cell-based

Sequence of Cytochrome P450 2C19 (P33261 whole entry): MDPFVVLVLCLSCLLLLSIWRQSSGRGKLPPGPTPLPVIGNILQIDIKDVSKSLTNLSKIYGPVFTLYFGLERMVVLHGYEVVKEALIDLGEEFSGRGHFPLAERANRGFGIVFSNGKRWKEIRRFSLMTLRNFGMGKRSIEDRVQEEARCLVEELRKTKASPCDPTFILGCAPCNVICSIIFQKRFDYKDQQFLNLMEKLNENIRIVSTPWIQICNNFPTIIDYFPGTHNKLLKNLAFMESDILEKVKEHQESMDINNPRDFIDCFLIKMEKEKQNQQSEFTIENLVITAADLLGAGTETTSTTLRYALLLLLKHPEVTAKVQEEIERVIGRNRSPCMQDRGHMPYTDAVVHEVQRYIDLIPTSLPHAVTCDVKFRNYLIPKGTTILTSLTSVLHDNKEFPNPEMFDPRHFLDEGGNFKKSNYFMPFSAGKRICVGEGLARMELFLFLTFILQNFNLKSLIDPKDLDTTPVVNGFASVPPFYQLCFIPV
Sequence of Cytochrome P450 3A4 (P08684 whole entry): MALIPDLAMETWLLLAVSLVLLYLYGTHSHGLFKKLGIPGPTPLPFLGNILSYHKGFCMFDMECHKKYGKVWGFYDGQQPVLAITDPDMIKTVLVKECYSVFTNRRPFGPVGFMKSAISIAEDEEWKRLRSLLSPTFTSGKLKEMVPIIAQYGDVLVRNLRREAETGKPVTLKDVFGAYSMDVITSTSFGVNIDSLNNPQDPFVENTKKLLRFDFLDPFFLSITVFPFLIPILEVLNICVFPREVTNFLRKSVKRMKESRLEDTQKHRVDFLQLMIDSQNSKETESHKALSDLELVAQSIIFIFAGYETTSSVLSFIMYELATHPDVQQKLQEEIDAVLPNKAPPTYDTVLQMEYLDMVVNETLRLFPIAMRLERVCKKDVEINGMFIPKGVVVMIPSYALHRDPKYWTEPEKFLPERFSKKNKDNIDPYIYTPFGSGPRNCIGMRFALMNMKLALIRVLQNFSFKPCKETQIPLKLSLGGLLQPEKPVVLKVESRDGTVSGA
Sequence of Luciferin 4-monooxygenase (P08659 whole entry): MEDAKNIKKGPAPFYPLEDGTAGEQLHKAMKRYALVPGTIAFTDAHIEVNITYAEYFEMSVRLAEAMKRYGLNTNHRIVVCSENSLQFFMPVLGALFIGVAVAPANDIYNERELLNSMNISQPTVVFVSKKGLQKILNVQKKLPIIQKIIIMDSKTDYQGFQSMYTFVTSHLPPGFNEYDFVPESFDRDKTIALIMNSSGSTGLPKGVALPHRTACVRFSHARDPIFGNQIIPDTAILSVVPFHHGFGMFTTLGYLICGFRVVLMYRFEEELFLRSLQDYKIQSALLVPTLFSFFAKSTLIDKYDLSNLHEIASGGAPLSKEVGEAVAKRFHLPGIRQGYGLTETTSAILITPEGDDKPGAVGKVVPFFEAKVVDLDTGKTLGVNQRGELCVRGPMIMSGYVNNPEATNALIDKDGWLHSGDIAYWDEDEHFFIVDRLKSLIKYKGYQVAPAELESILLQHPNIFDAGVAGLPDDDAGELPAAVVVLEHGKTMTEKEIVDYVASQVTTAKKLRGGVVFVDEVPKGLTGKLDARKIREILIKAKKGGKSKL
Sequence of FAD-linked sulfhydryl oxidase ALR (P55789 whole entry): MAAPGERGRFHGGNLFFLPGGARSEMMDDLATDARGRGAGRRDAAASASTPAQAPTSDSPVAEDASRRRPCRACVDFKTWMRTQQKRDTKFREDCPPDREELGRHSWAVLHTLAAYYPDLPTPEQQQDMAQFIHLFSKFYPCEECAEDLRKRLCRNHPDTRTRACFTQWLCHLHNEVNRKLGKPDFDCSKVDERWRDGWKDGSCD

Structure (SMILES): Nc1ncncc1-c1ccc([N+](=O)[O-])cc1
- AC50 (Cytochrome P450 2C19; read-out: AC50): 10 µM (inconclusive)
- AC50 (Cytochrome P450 3A4): 12.6 µM (inconclusive)
- AC50 (Cytochrome P450 1A2): 28.2 µM (inconclusive)

Structure (SMILES): CC(C)Cc1nnc(NC(=O)CCC(=O)N2CCC3(CC2)OCCO3)s1
- EC50 (cells [1]): > 350 µM (not active)
- EC50 (cells [2]): > 350 µM (not active)

Structure (SMILES): COc1cc(OC)cc(C(=O)NCC(=O)OC2CCOC2=O)c1 (centres undefined)
- AC50 (Cytochrome P450 2C19): inconclusive
- AC50 (Cytochrome P450 1A2): 0.0316 µM (inconclusive)

Structure (SMILES): CCNC(=S)N/N=C/c1ccc(-c2ccccc2)o1
- EC50 [3]: > 260 µM (inactive)

Structure (SMILES): Cc1cc(O)c(C(C)C)cc1NC(=O)Nc1cccc2ccccc12
- AC50 (Cytochrome P450 3A4): 3.16 µM (inconclusive)
- AC50 (Cytochrome P450 1A2): 0.794 µM (inconclusive)

Structure (SMILES): FC(F)(F)c1cccc(NC(S)=NCc2ccccn2)c1
- EC50 [3]: > 260 µM (inactive)

Structure (SMILES): COc1ccc(/C=N/NC(=O)c2ccncc2)cc1CN1CCN(c2ccc(F)cc2)CC1
- AC50 [4]: 7.46 µM (active)
- EC50 [5]: > 112 µM (not active)
- EC50 [6]: > 112 µM (not active)

Structure (SMILES): CC(C)Cc1ccc(C(C)C(=O)Nc2ccccc2O)cc1 (centres undefined)
- AC50 [7]: 1.89 µM (active)
- EC50 [8]: 5.7 µM (active)
- AC50 [9]: 4.26 µM (active)
- AC50 [10]: 6.63 µM (active)

Structure (SMILES): BrC(/C=C\c1ccccc1)=N/Nc1nc(N2CCOCC2)nc(N2CCOCC2)n1
- EC50 [3]: > 260 µM (inactive)

Structure (SMILES): Cc1cc(C)n2cc(COc3ccc4ccccc4c3)nc2n1
- EC50 [3]: > 260 µM (inconclusive)

Structure (SMILES): Cc1ccc(NC(=O)C2CCN(S(=O)(=O)c3ccc4c(c3)NC(=O)C(C)S4)CC2)cc1C (centres undefined)
- AC50 [7]: 2.61 µM (active)
- AC50 [9]: 6.43 µM (active)
- AC50 [10]: 68.3 µM (active)

Structure (SMILES): Cc1cccc(NC(=O)C2CC(=O)N=C(Nc3nc4ccccc4s3)N2)c1 (centres undefined)
- EC50 (cells [1]): > 350 µM (not active)
- EC50 (cells [2]): > 350 µM (not active)

Structure (SMILES): COc1ccc(-n2c(C)csc2=S)cc1
- EC50 (cells [1]): > 350 µM (not active)
- EC50 (cells [2]): > 350 µM (not active)

Structure (SMILES): O=C(NC1CCCC1)c1cc(-c2cccs2)on1
- EC50 (cells [1]): 52.2 µM (active)
- EC50 (cells [2]): 108 µM (active)

Reference: ChEMBL document CHEMBL1201862, “PubChem BioAssay data set” (2004)
